According to ChEMBL document CHEMBL5143555, “Potentiating the intracellular killing of Staphylococcus aureus by dihydroquinazoline analogues as NorA efflux pump inhibitor” (Bioorg Med Chem, 2022):
In brackets after ≈: the same amount, converted by molar mass. Activity calls are given as the source filed them. No cut-off for these calls is given here.

Key:
[1] = system: Staphylococcus aureus; test: Antibacterial activity against Staphylococcus aureus K1758 measured after 24 hrs by Muller Hinton broth based MTT assay; type: functional
[2] = system: Staphylococcus aureus; test: Antibacterial activity against Staphylococcus aureus 1199 measured after 24 hrs by Muller Hinton broth based MTT assay; type: functional
[3] = system: Staphylococcus aureus; test: Antibacterial activity against Staphylococcus aureus 1199B measured after 24 hrs by Muller Hinton broth based MTT assay; type: functional
[4] = biological target: T1, Quinolone resistance protein NorA (Staphylococcus aureus) (UniProt P0A0J7); test: Inhibition of NorA in Staphylococcus aureus 1199B assessed as potentiation of ethidium bromide-induced antibacterial activity by measuring ethidium bromide MIC at sub MIC
T1 sequence (whole entry): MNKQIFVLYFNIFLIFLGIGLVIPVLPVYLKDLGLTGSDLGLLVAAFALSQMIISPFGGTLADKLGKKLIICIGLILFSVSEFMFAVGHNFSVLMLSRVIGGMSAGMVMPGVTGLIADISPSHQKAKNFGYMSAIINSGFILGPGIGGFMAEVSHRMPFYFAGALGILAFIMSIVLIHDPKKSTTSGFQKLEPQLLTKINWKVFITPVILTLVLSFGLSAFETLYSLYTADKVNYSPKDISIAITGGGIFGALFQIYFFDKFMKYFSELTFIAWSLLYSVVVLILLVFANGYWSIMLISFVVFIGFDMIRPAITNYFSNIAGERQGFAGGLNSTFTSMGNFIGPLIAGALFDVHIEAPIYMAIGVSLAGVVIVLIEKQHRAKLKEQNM

[5] = biological target: T1, Quinolone resistance protein NorA (Staphylococcus aureus); test: Inhibition of NorA in Staphylococcus aureus 1199B assessed as potentiation of norfloxacin-induced antibacterial activity by measuring Norfloxacin MIC at sub MIC
[6] = biological target: T1, Quinolone resistance protein NorA (Staphylococcus aureus); test: Inhibition of NorA in Staphylococcus aureus 1199B assessed as potentiation of 3.1 ug/mL norfloxacin-induced bactericidal activity by measuring log reduction in bacterial count at 7.8 ug/mL measured after 24 hrs by time-kill kinetics assay; details: dose 7.8 µg/ml
[7] = biological target: T1, Quinolone resistance protein NorA (Staphylococcus aureus); test: Inhibition of NorA in Staphylococcus aureus 1199B assessed as accumulation of norfloxacin at 3.9 ug/ml by measuring fluorescence intensity measured at 5 mins interval for 40 mins by fluorescence spectrophotometry; details: dose 3.9 µg/ml
[8] = biological target: T1, Quinolone resistance protein NorA (Staphylococcus aureus); test: Inhibition of NorA in Staphylococcus aureus 1199B assessed as potentiation of ethidium bromide-induced antibacterial activity by measuring fractional inhibitory concentration
[9] = biological target: T1, Quinolone resistance protein NorA (Staphylococcus aureus); test: Inhibition of NorA in Staphylococcus aureus 1199B assessed as potentiation of norfloxacin-induced antibacterial activity by measuring fractional inhibitory concentration
[10] = biological target: T1, Quinolone resistance protein NorA (Staphylococcus aureus); test: Inhibition of NorA in Staphylococcus aureus 1199B assessed as potentiation of ethidium bromide-induced antibacterial activity by measuring ethidium bromide MIC at sub MIC relative to ethidium bromide MIC alone
[11] = Cytotoxicity against kidney epithelial cells (unknown origin) assessed as cell viability at 50 ug/mL measured after 24 hrs by alamar blue assay relative to control; type: toxicity, cell-based, Fetal kidney cell; details: at 50 µg/mL, read-out: Activity
[12] = biological target: T1, Quinolone resistance protein NorA (Staphylococcus aureus); test: Inhibition of NorA in Staphylococcus aureus 1199B assessed as potentiation of norfloxacin-induced antibacterial activity by measuring Norfloxacin MIC at sub MIC relative to norfloxacin MIC alone
[13] = biological target: T1, Quinolone resistance protein NorA (Staphylococcus aureus); test: Inhibition of NorA in Staphylococcus aureus 1199B assessed as accumulation of ethidium bromide at 3.9 ug/ml by measuring fluorescence intensity measured at 5 mins interval for 40 mins by fluorescence spectrophotometry; details: dose 3.9 µg/ml
[14] = biological target: T1, Quinolone resistance protein NorA (Staphylococcus aureus); test: Inhibition of NorA in Staphylococcus aureus 1199B assessed as potentiation of 3.1 ug/mL norfloxacin-induced bactericidal activity by measuring log reduction in bacterial count at 7.8 ug/mL measured after 12 hrs by time-kill kinetics assay; details: dose 7.8 µg/ml
[15] = biological target: T1, Quinolone resistance protein NorA (Staphylococcus aureus); test: Inhibition of NorA in Staphylococcus aureus 1199B assessed as potentiation of ethidium bromide-induced bactericidal activity at 7.8 ug/ml measured within 8 hrs by time-kill kinetics assay; details: dose 7.8 µg/ml
[16] = biological target: T1, Quinolone resistance protein NorA (Staphylococcus aureus); test: Inhibition of NorA in Staphylococcus aureus 1199B assessed as potentiation of 3.1 ug/mL norfloxacin-induced bactericidal activity by measuring log reduction in bacterial count at 3.9 ug/mL measured after 24 hrs by time-kill kinetics assay; details: dose 3.9 µg/ml
[17] = biological target: T1, Quinolone resistance protein NorA (Staphylococcus aureus); test: Inhibition of NorA in Staphylococcus aureus 1199B assessed as potentiation of ethidium bromide-induced bactericidal activity at 62.5 ug/ml measured after 24 hrs by time-kill kinetics assay; details: dose 62.5 µg/ml

Row | Compound | MIC [1] | MIC [2] | MIC [3] | further results
1 | CC1(C)S[C@@H]2[C@H](NC(=O)[C@H](N)c3ccc(O)cc3)C(=O)N2[C@H]1C(=O)O [AMOXICILLIN] | 0.1 µg/mL (≈ 0.274 µM) | 0.05 µg/mL (≈ 0.137 µM) | 0.42 µg/mL (≈ 1.15 µM) | –
2 | CO[C@H]1/C=C/O[C@@]2(C)Oc3c(C)c(O)c4c(O)c(c(/C=N/N5CCN(C)CC5)c(O)c4c3C2=O)NC(=O)/C(C)=C\C=C\[C@H](C)[C@H](O)[C@@H](C)[C@@H](O)[C@@H](C)[C@H](OC(C)=O)[C@@H]1C [RIFAMPIN] | 0.1 µg/mL (≈ 0.122 µM) | 0.1 µg/mL (≈ 0.122 µM) | 0.21 µg/mL (≈ 0.255 µM) | –
3 | CC1(C)S[C@@H]2[C@H](NC(=O)[C@H](N)c3ccccc3)C(=O)N2[C@H]1C(=O)O [AMPICILLIN] | 0.1 µg/mL (≈ 0.286 µM) | 0.05 µg/mL (≈ 0.143 µM) | 0.42 µg/mL (≈ 1.2 µM) | –
4 | CC(=O)NC[C@H]1CN(c2ccc(N3CCOCC3)c(F)c2)C(=O)O1 [LINEZOLID] | 0.1 µg/mL (≈ 0.296 µM) | 0.85 µg/mL (≈ 2.52 µM) | 1.75 µg/mL (≈ 5.19 µM) | –
5 | Brc1ccc(C2N=C(c3ccccc3)c3ccccc3N2)cc1 (stereo not drawn) | 250 µg/mL (≈ 688 µM) | 125 µg/mL (≈ 344 µM) | > 1000 µg/mL | –
6 | GENTAMICIN | 0.1 µg/mL | 0.21 µg/mL | 1.7 µg/mL | –
7 | O=[N+]([O-])c1ccc2c(c1)C(c1ccccc1)=NC(c1ccccc1)N2 (stereo not drawn) | 250 µg/mL (≈ 759 µM) | 125 µg/mL (≈ 380 µM) | 500 µg/mL (≈ 1520 µM) | –
8 | Fc1ccccc1C1=NC(c2ccccc2)Nc2ccc(Cl)cc21 (stereo not drawn) | 250 µg/mL (≈ 742 µM) | 62.5 µg/mL (≈ 186 µM) | 500 µg/mL (≈ 1480 µM) | –
9 | Fc1ccccc1C1=NC(c2ccc(Br)cc2)Nc2ccc(Cl)cc21 (stereo not drawn) | 250 µg/mL (≈ 601 µM) | 125 µg/mL (≈ 301 µM) | > 1000 µg/mL | –
10 | O=[N+]([O-])c1ccc(C2N=C(c3ccccc3)c3ccccc3N2)cc1 (stereo not drawn) | 250 µg/mL (≈ 759 µM) | 125 µg/mL (≈ 380 µM) | > 1000 µg/mL | –
11 | CN(C)[C@@H]1C(O)=C(C(N)=O)C(=O)[C@@]2(O)C(O)=C3C(=O)c4c(O)cccc4[C@@](C)(O)[C@H]3C[C@@H]12 [TETRACYCLINE] | 0.1 µg/mL (≈ 0.225 µM) | 0.02 µg/mL (≈ 0.045 µM) | 0.42 µg/mL (≈ 0.945 µM) | –
12 | CC[C@H]1OC(=O)[C@H](C)[C@@H](O[C@H]2C[C@@](C)(OC)[C@@H](O)[C@H](C)O2)[C@H](C)[C@@H](O[C@@H]2O[C@H](C)C[C@H](N(C)C)[C@H]2O)[C@](C)(O)C[C@@H](C)C(=O)[C@H](C)[C@@H](O)[C@]1(C)O [ERYTHROMYCIN] | 0.1 µg/mL (≈ 0.136 µM) | 0.1 µg/mL (≈ 0.136 µM) | 0.42 µg/mL (≈ 0.572 µM) | –
13 | Cc1onc(-c2ccccc2)c1C(=O)N[C@@H]1C(=O)N2[C@@H]1SC(C)(C)[C@@H]2C(=O)O [OXACILLIN] | 0.1 µg/mL (≈ 0.249 µM) | 0.1 µg/mL (≈ 0.249 µM) | 0.42 µg/mL (≈ 1.05 µM) | –
14 | CN1c2ccc(Cl)cc2C(c2ccccc2)=NC1c1ccc([N+](=O)[O-])cc1 (stereo not drawn) | 250 µg/mL (≈ 662 µM) | 125 µg/mL (≈ 331 µM) | 250 µg/mL (≈ 662 µM) | MIC [4]: 6.2 µg/mL; MIC [5]: 6.2 µg/mL; Activity [6]: > 3 log10CFU/ml; Flu intensity [7]: 573; fractional inhibitory concentration index (FICI) [8]: 0.25; fractional inhibitory concentration index (FICI) [9]: 0.141; fold change (FC) [10]: 8; viability at 24 h, 50 ug/mL [11]: 83.1%; fold change (FC) [12]: 8; Flu intensity [13]: 100
15 | CN1c2ccc(Cl)cc2C(c2ccccc2)=NC1c1ccccc1 (stereo not drawn) | 250 µg/mL (≈ 751 µM) | 125 µg/mL (≈ 376 µM) | 500 µg/mL (≈ 1500 µM) | MIC [4]: 12.5 µg/mL; Activity [14]: > 3 log10CFU/ml; MIC [5]: 6.2 µg/mL; Flu intensity [7]: 1560; fractional inhibitory concentration index (FICI) [8]: 0.266; fractional inhibitory concentration index (FICI) [9]: 0.141; fold change (FC) [10]: 4; viability at 24 h, 50 ug/mL [11]: 5%; inhibition [15]: Active; fold change (FC) [12]: 8; Flu intensity [13]: 143
16 | c1ccc(C2=NC(c3ccco3)Nc3ccccc32)cc1 (stereo not drawn) | 250 µg/mL (≈ 911 µM) | 125 µg/mL (≈ 456 µM) | 500 µg/mL (≈ 1820 µM) | –
17 | CN1c2ccc(Cl)cc2C(c2ccccc2)=NC1c1ccco1 (stereo not drawn) | 250 µg/mL (≈ 774 µM) | 125 µg/mL (≈ 387 µM) | > 1000 µg/mL | –
18 | O=C(O)c1cn(C2CC2)c2cc(N3CCNCC3)c(F)cc2c1=O [CIPROFLOXACIN] | 0.05 µg/mL (≈ 0.151 µM) | 0.05 µg/mL (≈ 0.151 µM) | 0.21 µg/mL (≈ 0.634 µM) | –
19 | C=CCOc1ccc(C2N=C(c3ccccc3)c3ccccc3N2)cc1 (stereo not drawn) | 250 µg/mL (≈ 734 µM) | 125 µg/mL (≈ 367 µM) | 500 µg/mL (≈ 1470 µM) | –
20 | CN[C@@H]1[C@H](O[C@H]2[C@H](O[C@H]3[C@H](O)[C@@H](O)[C@H](N=C(N)N)[C@@H](O)[C@@H]3N=C(N)N)O[C@@H](C)[C@]2(O)C=O)O[C@@H](CO)[C@H](O)[C@H]1O [STREPTOMYCIN] | 0.4 µg/mL (≈ 0.688 µM) | 1.7 µg/mL (≈ 2.92 µM) | 3.5 µg/mL (≈ 6.02 µM) | –
21 | c1ccc(C2=NC(c3ccccc3)Nc3ccccc32)cc1 (stereo not drawn) | 250 µg/mL (≈ 879 µM) | 125 µg/mL (≈ 440 µM) | 250 µg/mL (≈ 879 µM) | MIC [4]: 3.1 µg/mL; MIC [5]: 3.1 µg/mL; Activity [16]: > 3 log10CFU/ml; inhibition [17]: Active; Flu intensity [7]: 3960; fractional inhibitory concentration index (FICI) [8]: 0.31; fractional inhibitory concentration index (FICI) [9]: 0.078; fold change (FC) [10]: 16; viability at 24 h, 50 ug/mL [11]: 71%; fold change (FC) [12]: 16; Flu intensity [13]: 96.1
22 | COc1ccc(C2N=C(c3ccccc3)c3ccccc3N2)cc1 (stereo not drawn) | 250 µg/mL (≈ 795 µM) | 125 µg/mL (≈ 398 µM) | 500 µg/mL (≈ 1590 µM) | –
